Among the data in patent publication US20230391778A1, “INDOLIN-2-ONE OR PYRROLO -PYRIDIN -2 -ONE DERIVATIVES” (Hoffmann-La Roche Inc., priority 2014, published 2023) are IC50 values, retold here.

Molecules are shown by their SMILES. Counter-ions that a name gives are not always drawn.

In general, IC50 refers to the point on the concentration scale where inhibition reaches its midpoint. A higher IC50 goes with weaker potency in that assay.

In the experiment the target is T1, mouse ENT-1 transporter (Mus musculus, UniProt Q9JIM1).
T1 construct: expressed in transfected cells
T1 sequence (Q9JIM1 1-460): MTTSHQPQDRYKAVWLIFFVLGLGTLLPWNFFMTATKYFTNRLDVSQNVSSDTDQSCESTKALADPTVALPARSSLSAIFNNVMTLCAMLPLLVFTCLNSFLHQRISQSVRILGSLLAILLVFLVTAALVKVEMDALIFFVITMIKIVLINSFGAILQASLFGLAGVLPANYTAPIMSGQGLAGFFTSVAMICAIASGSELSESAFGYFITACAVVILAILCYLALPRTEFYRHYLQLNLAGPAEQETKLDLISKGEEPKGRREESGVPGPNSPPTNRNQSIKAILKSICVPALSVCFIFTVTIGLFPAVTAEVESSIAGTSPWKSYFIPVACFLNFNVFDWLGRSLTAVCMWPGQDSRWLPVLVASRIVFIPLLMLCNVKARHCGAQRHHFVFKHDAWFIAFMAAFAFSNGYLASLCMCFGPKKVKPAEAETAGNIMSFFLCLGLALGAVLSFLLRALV
In words: Measure of adenosine transport activity (ENT1 adenosine uptake inhibition). Format: cell-based. The following applies: stable cells expressing mouse ENT-1, [2,8-3H]-adenosine 6 nM, 20 min. How it is done:
To measure adenosine transport activity of ENT-1 mammalian cells, stable cells expressing the mouse ENT-1 transporter were plated on day 1 in 96-well culture plates at the density of 60,000 cells/well, in complete DMEM/F12 medium supplemented with glutamax, 10% FBS and 10 μg/ml puromycin. On day 2, the medium was aspirated and the cells were washed twice with uptake buffer (10 mM Hepes-Tris, pH 7.4 containing 150 mM NaCl, 1 mM CaCl2), 2.5 mM KCl, 2.5 mM MgSO4, 10 mM D-glucose) (UB). For inhibition experiments, cells were then incubated at RT with various concentrations of compounds with 1% DMSO final. Non-specific uptake was defined in the presence of 10 μM S-(4-Nitrobenzyl)-6-thioinosine (NBTI, Sigma Cat #N2255).
The plates were then incubated for 20 min with gentle shaking and the reaction was stopped by aspiration of the mixture and washing (three times) with ice-cold UB. The cells were lysed by the addition of scintillation liquid, shaken 3 hours and the radioactivity in the cells was estimated using a microplates scintillation counter (TopCount NXT, Packard).
On to `Cc1cnc(N2C(=O)C(C)(C)c3ccc(-c4cnc(C)nc4)cc32)cn1` [Example 57, 3,3-Dimethyl-1-(5-methylpyrazin-2-yl)-6-(2-methylpyrimidin-5-yl)indolin-2-one], for which the midpoint of inhibition, the IC50, lay at 27 nM.

Consider `Cc1cncc(N2C(=O)C(C)(C)c3ccc(-c4cnc(C)nc4)cc32)c1` [Example 59, 3,3-Dimethyl-1-(5-methylpyridin-3-yl)-6-(2-methylpyrimidin-5-yl)indolin-2-one], for which the IC50 worked out at 657 nM.

`Cc1ccnc(N2C(=O)C(C)(C)c3ccc(-c4cnc(C)nc4)cc32)c1` [Example 60, 3,3-Dimethyl-1-(4-methylpyridin-2-yl)-6-(2-methylpyrimidin-5-yl)indolin-2-one] had an IC50 of 3780 nM.

As for `Cc1cccc(N2C(=O)C(C)(C)c3ccc(-c4cnc(C)nc4)cc32)n1` [Example 61, 3,3-Dimethyl-1-(6-methylpyridin-2-yl)-6-(2-methylpyrimidin-5-yl)indolin-2-one], the midpoint of inhibition, the IC50, lay at 946 nM.

Compound `Cc1cncc(N2C(=O)C(C)(C)c3ccc(-c4cnc(C)nc4)cc32)n1` [Example 63, 3,3-Dimethyl-1-(6-methylpyrazin-2-yl)-6-(2-methylpyrimidin-5-yl)indolin-2-one] yielded an IC50 of 670 nM.

Turning to `Cc1ccnc(N2C(=O)C(C)(C)c3ccc(-c4cnc(C)nc4)cc32)n1` [Example 64, 3,3-Dimethyl-1-(4-methylpyrimidin-2-yl)-6-(2-methylpyrimidin-5-yl)indolin-2-one], the midpoint of inhibition, the IC50, lay at 5090 nM.

Compound `Cc1ncc(-c2ccc3c(c2)N(c2cn(C)c(C)n2)C(=O)C3(C)C)cn1` [Example 65, 1-(1,2-Dimethyl-1H-imidazol-4-yl)-3,3-dimethyl-6-(2-methylpyrimidin-5-yl)indolin-2-one] yielded an IC50 of 6740 nM.

Consider `Cc1cc(N2C(=O)C(C)(C)c3ccc(-c4cnc(C)nc4)cc32)cc(C)n1` [Example 66, 1-(2,6-Dimethylpyridin-4-yl)-3,3-dimethyl-6-(2-methylpyrimidin-5-yl)indolin-2-one], for which inhibition was half-maximal at 1140 nM (IC50).

With `Cc1cc(C)nc(N2C(=O)C(C)(C)c3ccc(-c4cnc(C)nc4)cc32)n1` [Example 67, 1-(4,6-Dimethylpyrimidin-2-yl)-3,3-dimethyl-6-(2-methylpyrimidin-5-yl)indolin-2-one], the IC50 was 5630 nM.

As to `Cc1cc(N2C(=O)C(C)(C)c3ccc(-c4cnc(C)nc4)cc32)nc(C)n1` [Example 68, 1-(2,6-Dimethylpyrimidin-4-yl)-3,3-dimethyl-6-(2-methylpyrimidin-5-yl)indolin-2-one], the IC50 came to 502 nM.

`Cc1ncc(-c2ccc3c(c2)N(c2cc(C)c(C)cn2)C(=O)C3(C)C)cn1` [Example 69, 1-(4,5-Dimethylpyridin-2-yl)-3,3-dimethyl-6-(2-methylpyrimidin-5-yl)indolin-2-one]: the IC50 was 1280 nM.

Compound `Cc1ncc(-c2ccc3c(c2)N(c2cnc(C)c(C)c2)C(=O)C3(C)C)cn1` [Example 75, 1-(5,6-dimethylpyridin-3-yl)-3,3-dimethyl-6-(2-methylpyrimidin-5-yl)indolin-2-one] gave an IC50 of 827 nM.

`Cc1ncc(-c2ccc3c(c2)N(c2cccnn2)C(=O)C3(C)C)cn1` [Example 76, 3,3-dimethyl-6-(2-methylpyrimidin-5-yl)-1-(pyridazin-3-yl)indolin-2-one] gave an IC50 of 2100 nM.

In the case of `Cc1ncc(-c2ccc3c(c2)N(c2ncccn2)C(=O)C3(C)C)cn1` [Example 79, 3,3-dimethyl-6-(2-methylpyrimidin-5-yl)-1-(pyrimidin-2-yl)indolin-2-one], the IC50 was 3880 nM.

`Cc1ncc(-c2ccc3c(c2)N(c2cnn(C)c2)C(=O)C3(C)C)cn1` [Example 80, 3,3-dimethyl-1-(1-methyl-1H-pyrazol-4-yl)-6-(2-methylpyrimidin-5-yl)indolin-2-one]: it took 1500 nM to reach half-maximal inhibition (IC50).

Turning to `Cc1ncc(-c2ccc3c(c2)N(c2cn[nH]c2)C(=O)C3(C)C)cn1` [Example 83, 3,3-dimethyl-6-(2-methylpyrimidin-5-yl)-1-(1H-pyrazol-4-yl)indolin-2-one], the IC50 stood at 4660 nM.

On to `Cc1ncc(-c2ccc3c(c2)N(c2cncnc2C)C(=O)C3(C)C)cn1` [Example 84, 3,3-dimethyl-6-(2-methylpyrimidin-5-yl)-1-(4-methylpyrimidin-5-yl)indolin-2-one], for which the IC50 was determined as 15600 nM.

With `Cc1ncc(-c2ccc3c(c2)N(c2c[nH]cn2)C(=O)C3(C)C)cn1` [Example 85, 1-(1H-imidazol-4-yl)-3,3-dimethyl-6-(2-methylpyrimidin-5-yl)indolin-2-one], the IC50 is 5240 nM.

Take `Cc1cc(N2C(=O)C(C)(C)c3ccc(-c4cnc(C)nc4)cc32)[nH]n1` [Example 86, 3,3-dimethyl-1-(3-methyl-1H-pyrazol-5-yl)-6-(2-methylpyrimidin-5-yl)indolin-2-one hydrochloride]: the IC50 stood at 423 nM.

Consider `Cc1ncc(-c2ccc3c(c2)N(c2cn(C)nn2)C(=O)C3(C)C)cn1` [Example 87, 3,3-dimethyl-1-(1-methyl-1H-1,2,3-triazol-4-yl)-6-(2-methylpyrimidin-5-yl)indolin-2-one], for which 2070 nM corresponded to half-maximal inhibition (IC50).

`Cc1ncc(-c2ccc3c(c2)N(c2ncc(C)[nH]2)C(=O)C3(C)C)cn1` [Example 88, 3,3-dimethyl-1-(4-methyl-1H-imidazol-2-yl)-6-(2-methylpyrimidin-5-yl)indolin-2-one]: the IC50 was 7660 nM.

As to `Cc1ncc(-c2ccc3c(c2)N(c2ncc[nH]2)C(=O)C3(C)C)cn1` [Example 92, 1-(1H-imidazol-2-yl)-3,3-dimethyl-6-(2-methylpyrimidin-5-yl)indolin-2-one], inhibition was half-maximal at 1290 nM (IC50).

In the case of `CCn1ccc(N2C(=O)C(C)(C)c3ccc(-c4cnc(C)nc4)cc32)n1` [Example 94, 1-(1-ethyl-1H-pyrazol-3-yl)-3,3-dimethyl-6-(2-methylpyrimidin-5-yl)indolin-2-one], inhibition was half-maximal at 1160 nM (IC50).

For the compound `Cc1ncc(-c2ccc3c(c2)N(c2cnc(C#N)cn2)C(=O)C3(C)C)cn1` [Example 96, 5-(3,3-dimethyl-6-(2-methylpyrimidin-5-yl)-2-oxoindolin-1-yl)pyrazine-2-carbonitrile], the IC50 amounted to 154 nM.

The compound `Cc1ncc(-c2ccc3c(c2)N(c2cnccc2C)C(=O)C3(C)C)cn1` [Example 99, 3,3-dimethyl-1-(4-methylpyridin-3-yl)-6-(2-methylpyrimidin-5-yl)indolin-2-one] showed an IC50 of 4330 nM.

On to `Cc1ncc(-c2ccc3c(c2)N(c2cnc(CO)nc2)C(=O)C3(C)C)cn1` [Example 102, 1-(2-(hydroxymethyl)pyrimidin-5-yl)-3,3-dimethyl-6-(2-methylpyrimidin-5-yl)indolin-2-one], for which the IC50 was 10200 nM.

For `Cc1ncc(-c2ccc3c(c2)N(c2cnc(CN)nc2)C(=O)C3(C)C)cn1` [Example 103, 1-[2-(aminomethyl)pyrimidin-5-yl]-3,3-dimethyl-6-(2-methylpyrimidin-5-yl)indol-2-one], the IC50 was 18400 nM.

As to `Cc1ncc(-c2ccc3c(c2)N(c2nnn(C)n2)C(=O)C3(C)C)cn1` [Example 105, 3,3-dimethyl-1-(2-methyl-2H-tetrazol-5-yl)-6-(2-methylpyrimidin-5-yl)indolin-2-one], half-maximal inhibition (IC50) was put at 7000 nM.

Compound `Cc1ncc(-c2ccc3c(c2)N(c2ccc(C)[n+]([O-])n2)C(=O)C3(C)C)c[n+]1[O-]` [Example 107, 3-(3,3-dimethyl-6-(2-methyl-1-oxidopyrimidin-5-yl)-2-oxoindolin-1-yl)-6-methylpyridazine 1-oxide] yielded an IC50 of 2190 nM.
